Laboratory results: the NIST ThermoML archive (doi:10.1021/acs.jced.5b01023)

Assay: refractive index (Na D-line) (dimensionless); xn = mol fraction of the nth substance listed
Settings: 101 kPa, Liquid, Standard Abbe refractometry

CC(=O)[O-].CCn1cc[n+](C)c1 [1-ethyl-3-methylimidazolium acetate] + CC(C)O
refractive index
Settings	x1 = 0.1	x1 = 0.2	x1 = 0.3	x1 = 0.4	x1 = 0.5001	x1 = 0.5998	x1 = 0.7	x1 = 0.7994	x1 = 0.9	x1 = 1
288.15 K	1.40475	–	1.43991	1.45344	1.4651	1.47535	1.48406	1.4912	1.49776	1.50285
298.15 K	1.40107	–	1.43669	1.45075	1.46242	1.47243	1.48131	1.48861	1.49526	1.50069
308.15 K	1.39762	1.42276	1.4336	1.4475	–	1.46954	1.4784	1.48593	1.49257	1.49803
318.15 K	1.39423	1.41947	1.43066	1.44471	1.45641	1.46689	1.47561	1.48324	1.48986	1.49527
328.15 K	1.39112	1.41637	1.42763	1.44229	1.45352	1.46489	1.47293	1.48046	1.48714	1.49266
338.15 K	1.38677	1.41309	1.42464	1.43908	1.45107	1.45943	1.47054	1.47775	1.48466	1.48995

CC(=O)[O-].CCn1cc[n+](C)c1 [1-ethyl-3-methylimidazolium acetate] + CCCO
refractive index
Settings	x1 = 0.1017	x1 = 0.2004	x1 = 0.3001	x1 = 0.3998	x1 = 0.4997	x1 = 0.5996	x1 = 0.6998	x1 = 0.8002	x1 = 0.8991	x1 = 1
288.15 K	1.41146	1.42938	1.44451	1.45711	1.46775	1.47687	1.485	1.49189	1.49712	1.50285
298.15 K	1.40825	1.42622	1.44134	1.45401	1.46473	1.47411	1.48219	1.48919	1.49506	1.50069
308.15 K	1.40453	1.42291	1.43827	1.45119	1.46189	1.47127	1.47942	1.48632	1.49221	1.49803
318.15 K	1.40109	1.41973	1.43523	1.44803	1.45888	1.4683	1.47661	1.48365	1.48899	1.49527
328.15 K	1.39753	1.41631	1.43208	1.44542	1.45593	1.4657	1.47372	1.48089	1.48673	1.49266
338.15 K	1.39391	1.41301	1.4291	1.44211	1.45308	1.46267	1.4711	1.47818	1.48324	1.48995
348.15 K	1.39115	1.41033	1.42601	1.43912	1.45026	1.45993	1.46823	1.47546	1.4803	1.48721
